The results in this text go back to PMC11407943, “Cdc14 phosphatases use an intramolecular pseudosubstrate motif to stimulate and regulate catalysis” (The Journal of Biological Chemistry, 2024).

Starred links: 1 amine or outer side, 2 acyl side, 3 side chain; linkers in the order of their positions; H or OH if unused. Positions of bridges follow the written chain, without caps; N, C: chain ends. Non-standard residues stand in square brackets, D forms with d. Residues, ends and D or L forms follow the SMILES beside them. No end group written: not given here. *: point of attachment. hTyr(3S-OH,4S-OH,3'-OSO3H) = N[C@H](C(=O)O)[C@H](O)[C@@H](O)c1ccc(O)c(OS(=O)(=O)O)c1; Orn(4R-OH,5R-OH) = O=C([C@H](C[C@@H](O)[C@@H](O)N[*:3])N[*:1])[*:2]; Pro(3S-OH,4S-Me) = C[C@H]1CN[C@H](C(=O)O)[C@H]1O; X1 = CCCCCOc1ccc(-c2cc(-c3ccc(C(=O)*)cc3)no2)cc1; Gln(3R-OH) = NC(=O)C[C@@H](O)[C@H](N)C(=O)O; Hyp = O=C(O)[C@@H]1C[C@@H](O)CN1; pS = N[C@@H](COP(=O)(O)O)C(=O)O

One test has as its target ScCdc14^1-449 (Saccharomyces cerevisiae, UniProt Q00684). As to the kind of experiment: Dephosphorylation of SLiCE phosphopeptides by ScCdc14^1-449. The note with it: 200 μM peptide, 30 min; enzyme 50 nM (yeast SLiCE), 1 μM (human SLiCE), 25 nM (Acm1pS3); mean of six.
The subject of test [1] is hCdc14A. Description: Dephosphorylation of SLiCE phosphopeptides by hCdc14A. The note with it: 200 μM peptide, 30 min; enzyme 1 μM (human SLiCE), 100 nM (yeast SLiCE and Acm1pS3); mean of six.
Protocol: (§1) B, same as panel A with WT hCdc14A that contains a functional SLiCE motif. […] All reactions contained 200 μM peptide substrate and were run for 30 min. […] Data are means of six measurements and error bars are SDs. D, same as panel C with hCdc14A enzyme at 1 μM for human SLiCE substrate and 100 nM for yeast SLiCE and Acm1pS3 substrates. E, peptide stimulation assays using 10 μM DiFMUP as substrate were conducted as in Figures 3A and 6A with ScCdc14^1-374 (50 nM) and 2 mM each stimulating peptide. F, same as panel E with hCdc14A^3A (10 nM) using 100 μM DiFMUP.
(§2) For trans peptide stimulation assays, DiFMUP was used at a single concentration well above the measured KM for each enzyme. […] (where pS is phosphoSer), were assayed in Cdc14 reaction buffer with Biomol Green (Enzo Life Science) detection of released inorganic phosphate as previously described ([29]). Data were fit with a modified Michaelis–Menten equation including a substrate inhibition term in Prism.
The subject of a further test is ScCdc14. As to the kind of experiment: Inhibition of ScCdc14 activity toward DiFMUP (not shown). It is filed as biochemical, Saccharomyces cerevisiae.
The subject of test [2] is hCdc14A. As to the kind of experiment: Inhibition of hCdc14A activity toward DiFMUP (not shown). It is filed as biochemical, human.
Test [3] relates to C. albicans cdc14^S411A and cdc14^S411E strains. As to the kind of experiment: Agar plate patch assay, C. albicans cdc14 mutant strains. The note with it: colonies arising from cdc14^S411A and cdc14^S411E strains; YPD + 50 ng/ml micafungin.
Protocol: Values are means of at least six independent measurements and error bars are SDs. […] E, agar plate patch assay with the indicated Candida albicans strains on YPD or YPD + 50 ng/ml micafungin. Plates were incubated at 30 °C for 72 h prior to imaging. Images in panels D and E are representative of multiple experiments performed with three independent isolates of the Ala and Glu mutant strains.
S. cerevisiae and C. albicans cultures were grown in yeast extract/peptone/dextrose (YPD) medium (10 g/l yeast extract, 20 g/l peptone, and 20 g/l glucose) at 30 °C with shaking at 225 rpm. C. albicans strains were supplemented with 8 μg/ml uridine. […] Agar was added to 20% (w/v) for growth on solid medium. […] For C. albicans patch assays, single colonies were resuspended in 100 μl PBS and spread on YPD agar plates ± 50 ng/ml micafungin.
For another test, the system named is WT hCdc14A. As to the kind of experiment: Trans stimulation of WT hCdc14A by synthetic SLiCE peptides. The note with it: near-saturating DiFMUP (300 μM), pH 7.5, 30 °C.
Test [4] has as its system hCdc14A^3A. Description: Trans stimulation of hCdc14A^3A by synthetic SLiCE peptides. The note with it: for stimulation of activity: near-saturating DiFMUP (300 μM), pH 7.5, 30 °C; for trans stimulation, interchangeability test: 2 mM peptide, 100 μM DiFMUP, 10 nM hCdc14A^3A, versus unstimulated.
Protocol: as §1, §2
Another test concerns ScCdc14^1-374. Description: Trans stimulation of ScCdc14^1-374 by synthetic SLiCE peptides. The class given is biochemical, Saccharomyces cerevisiae. The note with it: for trans stimulation, interchangeability test: 2 mM peptide, 10 μM DiFMUP, 50 nM ScCdc14^1-374, versus unstimulated.
Test [5] has as its target T1, hCdc14A^3A (Homo sapiens, UniProt Q9UNH5, L399A/R400A/K403A).
T1 construct: gene CDC14A
The note with it: n = 3.
Protocol: (§3) Data from velocity versus substrate concentration plots were fit with the Michaelis–Menten equation in GraphPad Prism (https://www.graphpad.com/) to determine steady-state kinetic parameters kcat and KM. For trans peptide stimulation assays, DiFMUP was used at a single concentration well above the measured KM for each enzyme. […] (where pS is phosphoSer), were assayed in Cdc14 reaction buffer with Biomol Green (Enzo Life Science) detection of released inorganic phosphate as previously described ([29]). Data were fit with a modified Michaelis–Menten equation including a substrate inhibition term in Prism.
(§4) B, initial velocities as a function of increasing DiFMUP concentration were measured under steady-state conditions for the indicated ScCdc14 variants. […] Data are average values from at least three independent measurements. Error bars are SDs. Lines are best fits for the Michaelis–Menten equation. C, to better visualize differences in KM, all Vmax values from data in panel A were normalized to 1. […] E, a representative presteady-state reaction progress graph for reaction of the indicated ScCdc14 enzyme variants with 200 μM DiFMUP, measured in a stopped flow spectrofluorometer. Data were fit with Equation 1 (see Experimental procedures) to generate rates of the burst phase (kburst) of the reaction. […]

In a further test the target is T2, hCdc14A^Q395A (Homo sapiens, UniProt Q9UNH5, Q395A).
T2 construct: gene CDC14A
The note with it: n = 3.

The target of another test is T3, hCdc14A^1-413 (Homo sapiens, UniProt Q9UNH5).
T3 construct: gene CDC14A
The note with it: n = 3.

Sequence of ScCdc14^1-449 (Q00684 1-449): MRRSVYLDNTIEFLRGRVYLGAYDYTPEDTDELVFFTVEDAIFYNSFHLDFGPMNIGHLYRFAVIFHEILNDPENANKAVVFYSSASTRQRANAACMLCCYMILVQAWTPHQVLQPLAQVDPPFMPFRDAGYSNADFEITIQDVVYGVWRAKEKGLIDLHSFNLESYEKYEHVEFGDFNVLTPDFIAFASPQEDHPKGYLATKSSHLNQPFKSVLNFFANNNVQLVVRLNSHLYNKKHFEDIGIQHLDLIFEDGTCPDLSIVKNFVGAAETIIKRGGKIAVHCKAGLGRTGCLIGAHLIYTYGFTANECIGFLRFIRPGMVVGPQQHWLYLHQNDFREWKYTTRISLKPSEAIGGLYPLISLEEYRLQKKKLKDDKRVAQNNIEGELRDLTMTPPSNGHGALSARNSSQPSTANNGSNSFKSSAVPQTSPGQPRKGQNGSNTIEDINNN
T2 sequence (Q9UNH5 1-413 Q395A): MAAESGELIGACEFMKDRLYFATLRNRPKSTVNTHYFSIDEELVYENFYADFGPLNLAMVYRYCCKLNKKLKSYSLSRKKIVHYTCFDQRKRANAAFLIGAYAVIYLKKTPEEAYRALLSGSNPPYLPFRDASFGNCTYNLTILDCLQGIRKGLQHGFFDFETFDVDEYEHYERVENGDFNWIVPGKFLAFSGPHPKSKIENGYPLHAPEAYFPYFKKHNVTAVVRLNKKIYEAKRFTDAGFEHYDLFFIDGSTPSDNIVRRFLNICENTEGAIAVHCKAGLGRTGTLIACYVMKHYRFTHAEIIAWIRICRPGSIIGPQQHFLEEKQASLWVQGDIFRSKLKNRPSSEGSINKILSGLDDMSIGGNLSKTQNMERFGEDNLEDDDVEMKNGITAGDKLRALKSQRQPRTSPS
T3 sequence (Q9UNH5 1-413): as the sequence (Q9UNH5 1-413 Q395A) above, with A395Q counted along it
T1 sequence (Q9UNH5 1-413 L399A/R400A/K403A): as the sequence (Q9UNH5 1-413 Q395A) above, with A395Q, L399A, R400A, K403A counted along it
Protocol for ScCdc14^1-449: as §1, §2
Protocol for WT hCdc14A: as §1, §2
Protocol for hCdc14A^1-413: as §3, §4
Protocol for hCdc14A^Q395A: as §3, §4

In the case of “QTSPG[pS]PRKGQN [yeast SLiCE phosphopeptide]”, at ScCdc14^1-449, the dephosphorylation as substrate result is “excellent Cdc14 substrate for both ScCdc14 and hCdc14A, almost as reactive as the optimal Acm1pS3 phosphopeptide”.
Regarding “T[pS]GDKLRALKSQR [human SLiCE phosphopeptide, T(pS)… where pS is phosphoserine]”, the dephosphorylation as substrate result with hCdc14A [1] and at ScCdc14^1-449 was “could not be dephosphorylated” each time. Also, the “inhibition of activity toward DiFMUP” value in the test with ScCdc14 and in the test with hCdc14A [2] was “unable to detect any inhibition” each time.
With `CCCCCOc1ccc(-c2cc(-c3ccc(C(=O)N[C@H]4C[C@@H](O)[C@@H](O)NC(=O)[C@@H]5[C@@H](O)[C@@H](C)CN5C(=O)[C@H]([C@H](O)CC(N)=O)NC(=O)[C@H]([C@H](O)[C@@H](O)c5ccc(O)c(OS(=O)(=O)O)c5)NC(=O)[C@@H]5C[C@@H](O)CN5C(=O)[C@H]([C@@H](C)O)NC4=O)cc3)no2)cc1` [micafungin] (X1-[Orn(4R-OH,5R-OH)]T[Hyp][hTyr(3S-OH,4S-OH,3'-OSO3H)][Gln(3R-OH)][Pro(3S-OH,4S-Me)]; lactam 1-C), in [3], the “sensitivity of sporadic faster growing colonies” value is on record as “resistant”.
For the compound TQGDKAAALASQR [3A peptide], the stimulation of activity entry with WT hCdc14A and with hCdc14A^3A [4] was “little effect on activity of either enzyme” in each case.
For the compound TQGDKLRALKSQR [human SLiCE peptide], the stimulation of activity result was “relatively small effect” in the test with WT hCdc14A and “strongly stimulated activity” in the test with hCdc14A^3A [4]. For the same compound, the “trans stimulation, interchangeability test” value with ScCdc14^1-374 is “failed to significantly stimulate ScCdc14”; in the test on hCdc14A^3A [4] it was “strongly stimulating hCdc14A”.
Consider QTSPGQPRKGQN [yeast SLiCE peptide], for which the figures for the “trans stimulation, interchangeability test” value in the test on ScCdc14^1-374 and in the test on hCdc14A^3A [4] were “only able to significantly stimulate ScCdc14” and “no effect on hCdc14A activity”, respectively. Further, the “stimulation of catalytic rate” value in the test with ScCdc14^1-374 (near-saturating DiFMUP (60 μM), pH 7.5, 30 °C, normalized to no added peptide, at least three independent measurements) is on record as “dose-dependent stimulation”.
Consider `Cc1cc(=O)oc2c(F)c(OP(=O)(O)O)c(F)cc12` [DiFMUP], for which the Km (as a rule, the substrate concentration at which the rate is half of its maximum) stood at 0.52 µM on hCdc14A^3A [5], 2.6 µM at hCdc14A^Q395A and 24 µM on hCdc14A^1-413.
TAGDKLRALKSQR [Q395A peptide]: the stimulation of activity entry with WT hCdc14A and in the test on hCdc14A^3A [4] was “little effect on activity of either enzyme” throughout.
